Literature values as cited in article PMC5861163 (European Journal of Nutrition, 2017).

Tested on: human faecal microbiota
Parameters: method as in PMID 26471074
Settings: after 24 h of fermentation in vitro

Compound | degraded by the human faecal microbiota
demethoxycurcumin | ≤ 61%
O=C(/C=C/c1ccc(O)cc1)CC(=O)/C=C/c1ccc(O)cc1 [bisdemethoxycurcumin] | ≤ 87%
